Here are results for three sequences from article PMC4147338, “Host defense peptides for treatment of colorectal carcinoma – a comparative in vitro and in vivo analysis” (Oncotarget, 2014).

Test [1] in a line: FRET spectroscopy probe dilution assay, membrane intercalation. The format is binding. Particulars: NBD-PE/rhodamine-PE, peptide 0.2-0.8 μM, 20 mM HEPES 150 mM NaCl pH 7.4, 37°C. The protocol:
FRET spectroscopy served as a sensitive tool to detect lipid dependence of the membrane interaction of antimicrobial peptides. For this, all peptides were added to liposomes consisting of zwitterionic PC alone, of a mixture of PC and of negatively charged PS, as well as of pure PS (Figure 1). All lipid vesicles were doped with donor and acceptor dyes, peptides were added, and the emission intensities of both dyes were monitored over time. An increase of the fluorescence intensity of the donor (IDonor) and a simultaneous decrease of the fluorescence intensity of the acceptor dye (IAcceptor), i.e. a reduced FRET efficacy, indicated an increase in the overall mean distance between labeled phospholipids, and corresponded to an insertion of peptides into the lipid bilayer. For clarity, the IDonor/IAcceptor ratio is shown (Figure 1).
Figure 1 FRET spectroscopy. (A-C) Binding to and insertion of peptide C7A-D21K into phospholipid membranes (A) C7A-D21K was added at time point 50 s to liposomes (10 μM) consisting of pure PC, (B) a 90:10 molar mixture of PC:PS, and (C) of pure PS, each doubly doped with the fluorescently labeled FRET pair NBD-PE (donor) and rhodamine-PE (acceptor). Intercalation was monitored by measuring donor and acceptor fluorescence emission intensities. For better visualization only the quotient (IDonor/IAcceptor) is shown. Addition of the peptide solvent alone had no effect (dotted grey line). Peptide concentrations used: 0.2 μM (dotted black line, only in C), 0.4 μM (solid grey line, only in C), and 0.8 μM (solid black line). (D-F) Binding to and insertion of peptides at different concentrations into phospholipid membranes. (A) Peptides were added to liposomes consisting of pure PC, (B) a 90:10 molar mixture of PC:PS, and (C) of pure PS, each doubly doped with the fluorescently labeled phospholipid FRET pair NBD-PE (donor) and rhodamine-PE (acceptor). Intercalation was monitored by measuring donor and acceptor fluorescence intensities. The relative increase of the IDonor/IAcceptor ratio 250 s after peptide addition is shown (Increase of IDonor/IAcceptor (%) = (IDonor/IAcceptor (peptide) - IDonor/IAcceptor (control))*100). Peptide concentrations used: 0.2 μM (open bars), 0.4 μM (grey bars), and 0.8 μM (black bars).
Intercalation of peptides into liposome membranes was determined by FRET spectroscopy applied as a probe dilution assay. Liposomes were prepared by dissolving appropriate lipid mixtures (pure PC, a 90:10 molar mixture of PC:PS, as well as pure PS, each doped with 1% of the donor dye NBD-PE and 1% of the acceptor dye rhodamine-PE) in chloroform and drying them under a gentle stream of nitrogen. The resulting lipid film was dispersed in 20 mM HEPES, 150 mM NaCl, pH 7.4, sonicated for 30 min and subjected to 3-4 temperature cycles from 4 to 60°C with an incubation period of 30 min at each step. Lipid dispersions were stored at 4°C overnight before use. For the assay, donor fluorescence (NBD) was excited at 470 nm, and donor (NBD, ID at 531 nm) as well as acceptor (rhodamine, IA at 593 nm) emission intensities were monitored over time. An increase of the ratio of the donor fluorescence intensity to that of the acceptor fluorescence intensity (IDonor/I^Acceptor) was interpreted as a membrane intercalation event. This ratio depends on the Förster efficiency, therefore a rising value means that the mean distance separation of donor and acceptor dyes is raising. The assay was performed at 37°C.

The next test concerns HROC24 xenografts. Description: HROC24 xenograft, repetitive local peptide injection. As to conditions: for Tumor growth inhibition in words / Tumors macroscopically breaking up / ulceration / Tumor size, x-fold increase vs. day 0 (Vt/V0): 1 mg/kg bw local injection every third day, 9 injections, n=5; for Tumor cell apoptosis, M30 CytoDeath staining (cytokeratin 18 cleavage): immunofluorescence of cryopreserved tumor sections; for Tumor size, x-fold increase vs. day 0 (Vt/V0): PBS control: 10.3-fold. The format is in vivo, NMRI Foxn1nu mice. As to the method: Figure 7 In vivo growth kinetics and tumor cell apoptosis of HROC24 tumors in NMRI Foxn1mice with or without local treatment (A) Therapy was performed by repetitive local application of HDPs C7A or C7A-D21K (1 mg/kg bw) every third day (a total of 9 injections) (n=5 per group). Tumor-carrying control animals received either equivalent volumes of peptide NK11 or saline (n=5 per group). Tumor volumes are given as x-fold increase vs. day 0 (Vt/V0) (start of treatment) ± SD. *p<0.05 vs. PBS. (B) Representative immunofluorescence staining of apoptotic cells within HROC24 tumors. Cryopreserved tumor sections were stained with anti-M30 CytoDeath antibody, followed by anti-mouse IgG FITC antibody and nuclear DAPI as described in material and methods.
Experiments were performed on female 8–10-week old NMRI Foxn1^nu mice (Charles River, Sulzfeld, Germany) weighting 18-20 g. All animals were fed standard laboratory chow and given free access to water. Trials were performed in accordance with the German legislation on protection of animals and the Guide for the Care and Use of Laboratory Animals (Institute of Laboratory Animal Resources, National Research Council; NIH Guide, vol.25, no.28, 1996). NMRI Foxn1^nu mice were challenged with 5 × 10^6 HROC24 cells. Mice with established subcutaneous (s.c.) tumors received repetitive local injections of peptide C7A or C7A-D21K (1mg/kg bw, dissolved in 50 μl) every third day (a total of 9 injections) (n=5 per group). As control, tumor-carrying mice either received NK11 (1mg/kg bw, dissolved in 50 μl) or saline (50μl volume, n=5 per group). Tumor growth was controlled three times a week at time point of HDP injection and tumor volume was estimated according to the formula: V= width² * length * 0.52.
Tumor carrying mice were sacrificed at day 28 or when they became moribund before the tumor volume reached 2.000 mm³. At the end of each experiment, tumors, blood and spleens were collected from the animals of all groups for further analysis.
To study apoptotic cell death in vivo, 4 μm sections of HDP-treated and control tumors were mounted on poly-L-lysine-coated-slides. Following fixation in ice-cold methanol and blocking with 2% BSA (1h), cells were incubated with mouse anti-M30 CytoDeath antibody according to the manufacturer's instructions (Roche, Mannheim, Germany). A FITC-labeled anti-mouse IgG antibody was used as secondary antibody (Dako Envision Link, Hamburg, Germany). Cell nuclei were stained with DAPI and slides were embedded in mounting medium (Dako). Apoptotic cells were detected using a fluorescence microscope (Olympus, Münster, Germany).

For the sequence “KILRGVAKKIMRTFLRRISKDILTGKK [Peptide C7A, NK-2 derivative, Cys7 replaced with Ala]”, in test [1] (PC:PS 90:10 liposomes 10 μM), the “Membrane intercalation (increase of IDonor/IAcceptor)” value was “slightly impaired”. In addition, in test [1] (pure PS liposomes 10 μM), the “Membrane intercalation (increase of IDonor/IAcceptor)” value is “pronounced”. Besides, in the test on HROC24 xenografts, the “Tumor growth inhibition in words” value is reported as “most effectiveness”; the “Tumors macroscopically breaking up / ulceration” value is 4/5; the “Tumor cell apoptosis, M30 CytoDeath staining (cytokeratin 18 cleavage)” value (from here on “Tumor cell apoptosis”) is “most strongly induced”.

Take “KILRGVAKKIMRTFLRRISKKILTGKK [Peptide C7A-D21K, C7A with Asp21 substituted by Lys]”: in test [1] (PC:PS 90:10 liposomes 10 μM), the “Membrane intercalation (increase of IDonor/IAcceptor)” value is “slightly impaired”. For the same sequence, the “Membrane intercalation (increase of IDonor/IAcceptor)” value in test [1] (pure PS liposomes 10 μM) is “pronounced”. Also, in the test on HROC24 xenografts, the “Tumor growth inhibition in words” value is “strong growth retardation”; the “Tumors macroscopically breaking up / ulceration” value is on record as “no ulceration was observed”; the “Tumor size, x-fold increase vs. day 0 (Vt/V0)” value worked out at 3.4 fold; the “Tumor cell apoptosis” value is “most strongly induced”.

“KISKRILTGKK [NK11, non-toxic control peptide based on NK-2, reference compound]”: the “Membrane intercalation (increase of IDonor/IAcceptor)” value in test [1] (PC:PS 90:10 liposomes 10 μM) is reported as “negligible”. In addition, the “Membrane intercalation (increase of IDonor/IAcceptor)” value in test [1] (pure PC liposomes 10 μM) is given as “negligible”. Besides, the “Membrane intercalation (increase of IDonor/IAcceptor)” value in test [1] (pure PS liposomes 10 μM) is recorded as “visible”. In addition, in the test with HROC24 xenografts, the “Tumor growth inhibition in words” value is “induced tumor growth retardation as well”; the “Tumor size, x-fold increase vs. day 0 (Vt/V0)” value is given as 4 fold; the “Tumor cell apoptosis” value is “elevated cytokeratin 18 cleavage”.
